Source: article PMC12078400, “Terminal spin labeling of xylotriose strongly affects interactions in the active site of xylanase BcX” (Journal of Biomolecular Nmr, 2025)
Like-named read-outs stand apart in the source and are kept apart here.

Tests used:
[1] = target: T1, BcX E78Q (Niallia circulans, UniProt P09850, E106Q); settings: ref Saberi et al. [2024], cited from earlier work
T1 construct: made in house

[2] = target: T2, BcX E78Q-Y69A (Niallia circulans, UniProt P09850, E106Q/Y97A); settings: ref Saberi et al. [2024], cited from earlier work
T2 construct: made in house

[3] = target: T1, BcX E78Q; assay: NMR titration (1H-15N HSQC) of 15N-labeled BcX E78Q with ligand; format: binding, Bacillus circulans
Procedure: (§1) Solutions of ^15N-labeled BcX E78Q and BcX E78Q-Y69A (100 µM) were titrated with Dia-X3 and Para-X3. Concentrations of up to 50 mM for Dia-X3 and 8 mM for Para-X3 were used. Samples were prepared separately, and each contained 25 mM sodium acetate buffer (pH 5.8) and 10% D2O for lock. ^1H − ^15N HSQC spectra were obtained on a Bruker HD Avance 850 MHz spectrometer with a cryoprobe, at 20 °C, using 3 mm tubes. In one experiment Para-X3 was reduced in the NMR tube with ascorbic acid to study the effect of reduction in a single sample. The assignment, processing, and analysis of the HSQC spectra were conducted as detailed before (Saberi et al. [2024]).
(§2) Spectra were processed with Topspin (Bruker) and analyzed using CCPN Analysis v.2.4.2 (Vranken et al. [2005]). The weighted average chemical shift perturbations (CSP) for backbone amides (Δδavg) was calculated according to Eq. 1 (modified after Williamson [2013]):1 Δδavg=δH^2+δN/25^2 where δH and δN are the CSPs for ^1H and ^15N nuclei. Titration data were fitted to a 1:1 model Eq. (2), which simplifies to (3) when the ligand concentration [Lt] is much higher than the protein concentration [Pt] (Arai et al. [2012]; Wang et al. [1996]; Williamson [2013]):2 Δδobs=ΔδmaxKD+[Pt]+[Lt]-KD+[Pt]+[Lt]^2-4[Pt][Lt]/2[Pt] 3 Δδobs=[Lt]/KD+[Lt]Δδmax where Δδobs and Δδmax are the observed and maximal change in the chemical shift and KD is the dissociation constant. The error in KD was estimated by manually adjusting KD to higher and lower values and observing the range over which the fit of the CSP data to the model remained within the peak picking error bars of the CSPs.
(§3) The fractional populations of the free and bound states were calculated using the peak height (I) as follows:4 ffree=Ifree/Ifree+Ibound,fbound=Ibound/Ifree+Ibound
(§4) Here, ffree and fbound represent the fractions of the protein in the free and bound states. The uncertainties in the peak heights represent the noise level in the spectra. The dissociation constant KD was determined using:5 KD=ffree.Lfree/fbound
(§5) In this equation, [Lfree] represents the concentration of the free ligand, which was approximated as the total ligand concentration [Ltotal] because the ligand was in large excess relative to the protein. The mean KD value was determined by averaging KD values across the used residues.

[4] = target: T2, BcX E78Q-Y69A; assay: NMR titration (1H-15N HSQC) of 15N-labeled BcX E78Q-Y69A with ligand; format: binding, Bacillus circulans
Procedure: as §1, §2, §3, §4, §5

[5] = secondary binding site, read-out: Dissociation constant KD, SBS
[6] = α-helix region, Para-X3 vs Dia-X3
[7] = α-helix region, global fit of CSP, pH 5.8, 20 °C, read-out: Dissociation constant KD, helix

In the case of `OC1OC[C@@H](O[C@@H]2OC[C@@H](O[C@@H]3OC[C@@H](O[C@@H]4OC[C@@H](O)[C@H](O)[C@H]4O)[C@H](O)[C@H]3O)[C@H](O)[C@H]2O)[C@H](O)[C@H]1O` (some centres unmarked) [X4], the Kd [1, 5] is listed as 2.3 mM.
In the case of `OC1OC[C@@H](O[C@@H]2OC[C@@H](O[C@@H]3OC[C@@H](O)[C@H](O)[C@H]3O)[C@H](O)[C@H]2O)[C@H](O)[C@H]1O` (some centres unmarked) [X3, xylotriose], the Kd ([1]; active site, read-out: Dissociation constant KD, active site) is given as 5.7 mM, the Kd [1, 5] is given as 23 mM and the Kd ([2]; active site, aglycon subsites, 2:1 model, read-out: Dissociation constant KD2, active site) is given as 24 mM. For the same molecule, the Kd ([2]; active site, glycon subsites, 2:1 model, read-out: Dissociation constant KD1, active site) was 15 mM and the Kd [2, 5] was 22 mM.
With `CC1(C)CC(O[C@@H]2OC[C@@H](O[C@@H]3OC[C@@H](O[C@@H]4OC[C@@H](O)[C@H](O)[C@H]4O)[C@H](O)[C@H]3O)[C@H](O)[C@H]2O)CC(C)(C)N1[O]` [Para-X3, β-D-xylopyranosyl-(1 → 4)-β-D-xylopyranosyl-(1 → 4)-1-TEMPOL-β-D-xylopyranoside] the Kd ([3]; active site, CSP of amides, up to 8 mM ligand, NB = no binding, read-out: Dissociation constant KD, active site) was greater than 8 mM, the “Binding in the active site cavity (CSP or intensity loss of amide resonances)” value ([3]; inside active site cleft, up to 8 mM ligand) was “absent or very weak” and the “Affinity for helix region, fold higher than for the diamagnetic equivalent (Dia-X3)” value [3, 6] was 2.7 fold. For the same molecule, the Kd [3, 7] was 1.6 mM, the “CSPs or PRE for amides in the inner palm region (active site)” value ([4]; 8 mM ligand) was “No significant CSPs or PRE” and the Kd ([4]; active site, fit of CSP curves (fast exchange), NB = no binding, read-out: Dissociation constant KD, active site) was greater than 8 mM. For the same molecule, the “Affinity for helix region, fold higher than for the diamagnetic equivalent (Dia-X3)” value [4, 6] was 1.4 fold and the Kd [4, 7] was 2.4 mM.
